Measured values as given in patent publication US7452965B2, “Colon tumor specific binding peptides” (University of Utah Research Foundation, priority 2002, dated 2008).
Where two headings read alike, the source gives them in different places. Bridge positions count the residues as written; N and C are the ends. Square brackets hold non-standard residues; d marks the D form. Ends that are not written are not given here. Peptide text beside a SMILES is read from it.

How the values were obtained:
HT29 cells [1] = assay: RPM-FITC immunofluorescence staining of cultured cells (confocal microscopy); format: cell-based
Description: Cell Culture: HT29, HCT116, or a 50% mixture of HT29 and HCT116 cells were plated on glass slides (Nalge). Wells were incubated with 10 μM of RPM-FITC peptide for 45 minutes at 4° C. or 37° C. After washing with wash buffer, cells were blocked with 1% NGS, 0.1% BSA, 0.1% Triton-X100 in PBS. Following the blocking step, wells were incubated with the polyclonal p53 antibody, D10, (Santa Cruz) for 1 hour at room temperature. The wells were washed and incubated with the secondary antibodies GαFITC Alexa 488 (Molecular Probes) and GαMouse Alexa 647 (Molecular Probes) and the nuclear stain Topro-3 (Molecular Probes). Wells were washed and mounted using Pro-Long Anti-fade (Molecular Probes). Slides were analyzed by confocal microscopy.
The peptide then was tested to determine whether it was able to differentiate HT29 from HCT116 cells. In order to distinguish HT29 from HCT116 cells in our immunohistochemical assays, staining was carried out in the presence of the transcription factor, p53. Staining for the protein p53 is a way to visually discriminate HT29 from HCT116 cells, since p53 is mutated and accumulates in HT29 cells but is wild type in HCT116 cells and thus, is rapidly degraded. […] To test the ability of the fluorescein conjugated peptide (RPM-FITC) to preferentially bind HT29 cells, HT29 and HCT116 cells were stained with RPM-FITC. […] When a mixture of HT29 and HCT116 cells was incubated with RPM-FITC and concurrently analyzed for the presence of p53, cells with the highest level of p53 protein also bound RPM-FITC (FIG. 5A).
The ability of a molecule to translocate across the cell membrane is important for drug delivery. HT29 cells were incubated for 1 hour at either 4° C. or 37° C. in the presence of 100 uM RPM-FITC. After incubation, cells were washed, fixed with 2% paraformaldehyde, then incubated with an anti-FITC secondary antibody to amplify the fluorescence signal.

HT29 cells [2] = details: for ability of peptide to compete RPM (CPIEDRPMC) phage binding to HT29 cells: peptide 0-1000 μM; for ability of peptide to compete RPM (CPIEDRPMC) phage binding to HT29 cells / level of RPM associated phage binding to HT29 cells in presence of competitor: 4° C.; for level of RPM associated phage binding to HT29 cells in presence of competitor: percentage of phage bound in absence of competitor; for shift of EC50 of competition relative to RPM peptide: alanine mutants vs RPM peptide
Description: Phage binding assay. HT29 cells were incubated with peptide in binding buffer at concentrations of 0, 0.1, 1, 10, 100, or 1000 μM for 30 minutes at 4° C. After 30 minutes of incubation, 10^10 pfu of phage were added to the cells and incubated at 4° C. for an additional 45 minutes. Following incubation, cells were washed 6× with wash buffer and the phage remaining bound were eluted with glycine. The number of phage bound to the cells was quantified with real time PCR.
To determine whether […] (SEQ ID NO: 134) displaying phage bind to HT29 cells specifically, a competition assay was performed using phage and synthetic peptides, peptides corresponding to the specific sequence, […] (SEQ ID NO: 134), and the non-specific sequence, […] (SEQ ID NO: 135), were synthesized by standard methods and oxidized to form a disulfide bond. Reaction of the peptides before and after oxidation with ElIman's reagent was performed to verify presence of the disulfide bond. […] In FIG. 2A, HT29 cells were incubated with increasing log concentrations of […] (SEQ ID NO: 134) peptide and with a constant number of either specific or non-specific phage. The number of phage binding to the HT29 cells was quantified and the percentage binding calculated based on the number of phage that bind in the absence of competitor. The sequence […] The reciprocal experiment was also done with HT29 cells incubated with increasing log concentrations of specific or non-specific peptide and a constant concentration of phage displaying the peptide […] (SEQ ID NO: 134).
The phage selection procedure produced naturally occurring substitution mutants so the phage and the peptide could be used to determine a functional consensus sequence for the family. HT29 cells were incubated with increasing log concentrations of […] (SEQ ID NO: 134) peptide and a constant number of phage displaying one of the sequences were selected.
To examine the importance of each residue within the RPM sequence for binding to HT29 cells, peptides were synthesized having alanine mutations in either the arginine, proline, or methionine residue and used in phage competition assay as described above.

HCT116 cells = assay: MTT cell viability after RPM-KLAK or KLAK; format: cell-based; details: 72 hours at 37° C.
Description: (§1) RPM-KLAK (SEQ ID NO: 132) and KLAK (SEQ ID NO: 133) on HT29 and HCT116 cells. HT29 and HCT116 cells were incubated with increasing log concentrations of RPM-KLAK (SEQ ID NO: 132) or KLAK (SEQ ID NO: 133) for 72 hours at 37° C. After incubation, MTT was added to a final concentration of […] and incubated at 37° C. for 1 hour. The media/MTT was removed carefully and the cells dissolved with 0.1N HCl in isopropanol. Absorbance was read on a plate reader (Cytofluor II, Perceptive Biosystems) at 570 nm.
(§2) Since RPM-FITC is internalized at 37° C., RPM may be used to deliver a toxin to HT29 cells. […] Cells that were incubated with (KLAK)2 (SEQ ID NO: 138) alone or with free peptide were refractory to death induced by the toxin. However, when a peptide that was specific and also internalized by cells was conjugated to (KLAK)2 (SEQ ID NO: 138), the cells were killed. RPM was coupled to (KLAK)2 (SEQ ID NO: 138) and incubated with HT29 and HCT116 cells with either (KLAK)2 (SEQ ID NO: 138) alone as a negative control or RPM-(KLAK)2 (SEQ ID NO: 5). Cells were treated for 72 hours at 37° C. At the end of the incubation, cell viability was measured by MTT assay. […] This was indeed observed for HCT116 incubation with RPM (KLALK)2 (SEQ ID NO: 5) (FIG. 6B).

HT29 cells [3] = assay: MTT cell viability after RPM-KLAK or KLAK; format: cell-based; details: 72 hours at 37° C.
Description: as §1, §2

HT29 cells [4] = assay: MTT viability of protease-treated cells; format: cell-based; details: MTT 45 minutes at 37° C. after protease treatment
Description: (§3) In order to further this observation, HT29 cells were treated with active or boiled proteases to determine the effect of treatment on the ability of an RPM displaying phage to bind. HT29 cells were treated with active or boiled collagenase for 15 minutes, trypsin for 5 minutes, or proteinase K for 0.5 minutes at 37° C. After protease treatment, cells were washed, then an equal number of phage were added and allowed to bind. […] The decrease in phage binding to the HT29 cells was due to the protease activity since boiling the proteases abolished the effect with phage binding returning to levels of that observed for PBS treated cells (FIG. 6B). […] After treating HT29 cells with proteases as described above, MTT was added to the cells and incubated for 45 minutes at 37° C. After incubation, the cells were solubilized with 0.1N HCl in isopropanol and the absorbance due to MTT incorporation was determined.

HT29 cells [5] = assay: Protease assay: RPM phage binding to protease-treated cells; details: 37° C.
Description: HT29 cells were incubated at 37° C. with either active or boiled Collagenase diluted 1:20 for 10 minutes, Trypsin-EDTA 0.25% (Gibco) for 5 minutes or Proteinase K (Gibco) diluted 1:600 for 1 minute. After incubation, cells were then incubated with RPM bearing phage as described above. The number of phage remaining bound was quantified by real time PCR.
as §3

[6] = tested on: lung and liver cancer, grossly uninvolved lung, liver, and stomach; assay: Peptide-binding assay on frozen tissue sections; set-up: species or system human; details: cryostat sections
Description: (§4) A biopsy of sporadic colon adenocarcinoma, liver and lung sarcoma, and grossly uninvolved colon, liver, lung, and stomach were frozen in optimum cutting temperature (OCT) and […] cryostat sections placed on glass slides. Sections were stained with H&E and untreated adjacent sections were incubated with RPM-FITC. After incubating with RPM-FITC in binding buffer for 45 minutes at 4° C., slides were washed and mounted using Pro-Long Anti-Fade (Molecular Probes). Nuclei were visualized by a quick incubation with Topro-3 (Molecular Probes) present in the last wash. Samples were analyzed by confocal microscopy.
To determine whether RPM-FITC was able to bind cancers originated from tissues other than colon or to other normal tissues, a peptide-binding assay was performed on cryostat sections of lung and liver cancer, and grossly uninvolved lung, liver, and stomach. As a positive control, a section of colon tumor was stained in parallel with the other sections. […] Binding to HT29 Cells is Dependent on the Amino Acids, RPMC-C (SEQ ID NO: 136).

human colon tumor = assay: Peptide-binding assay on frozen tissue sections
Description: as §4

## CKHLGPQLC (disulfide 1-9 (inferred)) [reference compound]
HT29 cells [1]
  effect of unlabeled competitor on RPM-FITC staining of HT29 cells: unaffected
HT29 cells [2]
  ability of peptide to compete RPM (CPIEDRPMC) phage binding to HT29 cells: not able to compete
  level of RPM associated phage binding to HT29 cells in presence of competitor: 100%
HT29 cells [2]; listed as unrelated peptide
  ability of peptide to compete RPM (CPIEDRPMC) phage binding to HT29 cells: failed to block

## (KLAK)2: antimicrobial toxin that selectively disrupts the mitochondrial membrane of eukaryotic cells, SEQ ID NO: 138 / 133 (KLAKKLAK) [reference compound]
HCT116 cells
  effect on HCT116 cell viability: did not effect the viability
HT29 cells [3]
  effect on HT29 cell viability: did not effect the viability

## CC[C@H](C)[C@@H]1NC(=O)[C@@H]2CCCN2C(=O)[C@@H](N)CSSC[C@@H](C(=O)O)NC(=O)[C@H](C)NC(=O)[C@@H]2CCCN2C(=O)[C@H](CCCNC(=N)N)NC(=O)[C@H](CC(=O)O)NC(=O)[C@H](CCC(=O)O)NC1=O [RPA] (H-CPIEDRPAC-OH; disulfide 1-9 (inferred); N-terminus and C-terminus assumed)
HT29 cells [2]
  EC50: 545 µM
  shift of EC50 of competition relative to RPM peptide: ~100 fold

## RPM middle: peptide bearing the RPM motif in the middle of the peptide, CPIRPMEDC (SEQ ID NO: 137)
HT29 cells [2]; compared to RPM
  fold less potent than RPM in competing with phage for HT29 cell binding: over 100 fold
HT29 cells [2]
  ability of peptide to compete RPM (CPIEDRPMC) phage binding to HT29 cells: failed to compete

## CC[C@H](C)[C@@H]1NC(=O)[C@@H]2CCCN2C(=O)[C@@H](N)CSSC[C@@H](C(=O)O)NC(=O)[C@H](CCSC)NC(=O)[C@@H]2CCCN2C(=O)[C@H](C)NC(=O)[C@H](CC(=O)O)NC(=O)[C@H](CCC(=O)O)NC1=O [APM] (H-CPIEDAPMC-OH; disulfide 1-9 (inferred); N-terminus and C-terminus assumed)
HT29 cells [2]
  EC50: 690 µM
  shift of EC50 of competition relative to RPM peptide: ~100 fold

## A11 D RPM: RPM peptide consisting of all D amino acids ([dC][dP][dI][dE][dD][dR][dP][dM][dC]; cysteine pairing not given here)
HT29 cells [2]
  ability of peptide to compete RPM (CPIEDRPMC) phage binding to HT29 cells: not able to compete
HT29 cells [2]; listed as peptide synthesized with all D amino acids
  ability of peptide to compete RPM (CPIEDRPMC) phage binding to HT29 cells: failed to compete

## collagenase
HT29 cells [4]
  average absorbance (MTT incorporation) of treated cells: 0.189
HT29 cells [5]
  decrease of RPM phage binding to active protease treated HT29 cells: 85%

## trypsin
HT29 cells [4]
  average absorbance (MTT incorporation) of treated cells: 0.175
HT29 cells [5]
  decrease of RPM phage binding to active protease treated HT29 cells: 90%

## CC[C@H](C)[C@@H]1NC(=O)[C@@H]2CCCN2C(=O)[C@@H](N)CSSC[C@@H](C(=O)O)NC(=O)[C@H](CCSC)NC(=O)[C@@H]2CCCN2C(=O)[C@H](CCCNC(=N)N)NC(=O)[C@H](CC(=O)O)NC(=O)[C@H](CCC(=O)O)NC1=O [CPIEDRPMC, cys-pro-ile-glu-asp-arg-pro-met-cys] (H-CPIEDRPMC-OH; disulfide 1-9)
[6]
  labeling of lung and liver cancer and uninvolved lung, liver, stomach: failed to stain
HT29 cells [1]
  effect of unlabeled competitor on RPM-FITC staining of HT29 cells: able to abolish
Human colon tumor
  effect of unlabeled competitor on RPM-FITC binding to colon tumor: abrogate binding
HT29 cells [2]
  ability of peptide to compete RPM (CPIEDRPMC) phage binding to HT29 cells: able to compete
  level of RPM associated phage binding to HT29 cells in presence of competitor: less than 4%
HT29 cells [2]; listed as RPM peptide
  ability of peptide to compete RPM (CPIEDRPMC) phage binding to HT29 cells: successfully abolished binding
HT29 cells [2]; read-out: EC50 of competition, competition of RPM displaying phage on HT29 cells
  EC50: 5 µM
